Results on 15 compounds are retold here after PubChem BioAssay (NCI).

Test systems include A549 NSCLC; IGROV1 ovarian; LOX IMVI melanoma; M14 melanoma; OVCAR-8 ovarian; RXF 393 renal; SK-MEL-2 melanoma; HOP-92 NSCLC; MDA-MB-435.
Common to all, as to assay: DTP human tumour cell line panel, 48 h

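Growth conditions: 96-well plates. Treatment: test compound, 48 hours, 5 concentrations. Analysis: linear interpolation between bracketing concentrations; unreached endpoints set to highest concentration. GI50 marks 50% less growth. TGI: total growth inhibition.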

What is called TGI is the concentration at which net growth stops. Higher therefore signals lower sensitivity of the cells. In the case of `C=CCn1c(=S)sc2c(C(=O)OCC)c3c(C)cc(C)cn3c2c1=O`, the TGI in the assay with A549 NSCLC, with IGROV1 ovarian, in the assay on LOX IMVI melanoma, with M14 melanoma, in the assay with OVCAR-8 ovarian and with RXF 393 renal was above 100 µM each time. This compound yielded a TGI with SK-MEL-2 melanoma above 100 µM.

In the case of `CCOC(=O)NC(=O)c1cn(CCN2CCN(C(=O)CNC(=O)CNC(=O)Cn3cc(C(=O)NC(=O)OCC)c(=O)[nH]c3=O)CC2)c(=O)[nH]c1=O`, the TGI in the assay on A549 NSCLC, in the assay with HOP-92 NSCLC, with LOX IMVI melanoma, with M14 melanoma, with OVCAR-8 ovarian and in the assay with SK-MEL-2 melanoma was above 100 µM throughout.

Turning to `CC(C)C1CO[C@]2(C)CCC(=O)N12` (some centres not stated), the TGI in the assay on A549 NSCLC, in the assay with HOP-92 NSCLC, in the assay with IGROV1 ovarian, in the assay with M14 melanoma, with OVCAR-8 ovarian and in the assay on RXF 393 renal was above 100 µM in each case. Besides, the TGI in the assay on SK-MEL-2 melanoma was above 100 µM.

For the compound `C[N+]1=c2c3cccc4cccc(c(=O)n2CC1)c43`, the TGI with A549 NSCLC stood at 53 µM; with HOP-92 NSCLC, 61.8 µM; in the assay with IGROV1 ovarian, 60.5 µM; with LOX IMVI melanoma, 17.6 µM; with M14 melanoma, 28.7 µM; in the assay with OVCAR-8 ovarian it was 80.9 µM. In addition, the values for the TGI in the assay with RXF 393 renal and with SK-MEL-2 melanoma were 25.5 µM and 34.8 µM, respectively.

As for `N#C/C(=C1\SCC(=O)N1c1ccccc1)c1nc2ccccc2[nH]1`, the concentration for total growth inhibition (TGI) in the assay with A549 NSCLC, in the assay with HOP-92 NSCLC, with IGROV1 ovarian, in the assay with LOX IMVI melanoma, in the assay on M14 melanoma and in the assay with OVCAR-8 ovarian was above 100 µM throughout. Moreover, the concentration for total growth inhibition (TGI) in the assay on RXF 393 renal and in the assay on SK-MEL-2 melanoma was above 100 µM each time.

By GI50 is commonly meant the concentration at which growth is held to half of that of the control. For `CNC(=O)NCC1OC(n2cnc3c(NC(=O)Nc4ccccc4)ncnc32)C(O[Si](C)(C)C(C)(C)C)C1O[Si](C)(C)C(C)(C)C` (configuration not stated), the GI50 is 2900 nM in the assay on A549 NSCLC; 1560 nM in the assay on HOP-92 NSCLC; 2740 nM in the assay with IGROV1 ovarian; 1820 nM in the assay on LOX IMVI melanoma; 4.33 µM with M14 melanoma; 3.41 µM with MDA-MB-435. Moreover, the GI50 in the assay on OVCAR-8 ovarian is 4.01 µM; with RXF 393 renal, 2140 nM; with SK-MEL-2 melanoma, 2450 nM. The total growth inhibition concentration (TGI) in the assay with A549 NSCLC was 12.8 µM; in the assay with HOP-92 NSCLC it was 5.16 µM; in the assay on IGROV1 ovarian, 7.76 µM; with LOX IMVI melanoma, 3.36 µM; in the assay with M14 melanoma it was 18.5 µM; in the assay on MDA-MB-435, 29.1 µM. The concentration for total growth inhibition (TGI) in the assay on OVCAR-8 ovarian is 40.1 µM; with RXF 393 renal, 4.01 µM; in the assay on SK-MEL-2 melanoma it was 5.54 µM.

In the case of `Cc1ccc(S(=O)(=O)N/N=C(\c2nc3ccc(Cl)cc3[nH]c2=O)C(O)c2ccco2)cc1` (configuration not stated), the total growth inhibition concentration (TGI) with A549 NSCLC, in the assay with HOP-92 NSCLC, in the assay with IGROV1 ovarian, with LOX IMVI melanoma, with M14 melanoma and in the assay on RXF 393 renal was above 100 µM in each case. This compound also returned a total growth inhibition concentration (TGI) in the assay with SK-MEL-2 melanoma above 100 µM.

As for `C=CC(=O)N1C/C(=C\c2ccc(Cl)c(Cl)c2)C(=O)/C(=C/c2ccc(Cl)c(Cl)c2)C1`, the TGI with HOP-92 NSCLC was found to be 2.94 µM; in the assay with IGROV1 ovarian, 0.263 µM; in the assay with LOX IMVI melanoma, 0.842 µM; with M14 melanoma, 0.702 µM; with OVCAR-8 ovarian, 0.274 µM; in the assay with RXF 393 renal it was 0.299 µM. In the assay with SK-MEL-2 melanoma, this compound showed a concentration for total growth inhibition (TGI) of 1.43 µM.

As to `COc1cc(CNc2nc3c(N)cc(C(F)(F)F)cc3nc2-c2ccccc2)cc(OC)c1OC`, the concentration for total growth inhibition (TGI) in the assay on A549 NSCLC, with HOP-92 NSCLC, in the assay with IGROV1 ovarian, with LOX IMVI melanoma, in the assay on M14 melanoma and in the assay with OVCAR-8 ovarian was above 100 µM in each case. The total growth inhibition concentration (TGI) is 69.4 µM in the assay with RXF 393 renal and above 100 µM in the assay on SK-MEL-2 melanoma. Besides, in the assay on IGROV1 ovarian, the GI50 is above 100000 nM.

Regarding `CCO/C=C1\N=C(c2ccc(Cl)c(Cl)c2)OC1=O`, the TGI in the assay with A549 NSCLC, in the assay with HOP-92 NSCLC, in the assay on IGROV1 ovarian, in the assay with LOX IMVI melanoma, in the assay on M14 melanoma and with OVCAR-8 ovarian was above 100 µM each time. Also, the TGI in the assay with RXF 393 renal and in the assay on SK-MEL-2 melanoma was above 100 µM each time.

As to `C#CC1(O)CCC2C3CCc4cc(Oc5nc(F)nc(-c6c7ccccc7c7n6CCS7)n5)ccc4C3CC[C@@]21C` (some centres not stated), the TGI with A549 NSCLC was above 100 µM; in the assay on HOP-92 NSCLC, 47 µM; with IGROV1 ovarian, above 100 µM; in the assay on M14 melanoma it was 40.5 µM; with OVCAR-8 ovarian it was above 100 µM; in the assay with SK-MEL-2 melanoma, 23.9 µM.

Take `CC(C)/C=C1\CCC(CN2CCOCC2)C1=O` (configuration not stated): the TGI is 72.6 µM with A549 NSCLC; 38.9 µM in the assay with HOP-92 NSCLC; 20.8 µM in the assay on IGROV1 ovarian; 53.6 µM in the assay with LOX IMVI melanoma; 26.1 µM in the assay on M14 melanoma; above 40.8 µM in the assay with OVCAR-8 ovarian. Also, the results for the concentration for total growth inhibition (TGI) in the assay on RXF 393 renal and in the assay on SK-MEL-2 melanoma were 14.1 µM and 35.6 µM, respectively.

Consider `Cc1cc(N(CCC#N)S(=O)(=O)c2ccccc2)ccc1/C=C1\N=C(c2ccc(Cl)cc2)OC1=O`, for which the concentration for total growth inhibition (TGI) in the assay with A549 NSCLC, with HOP-92 NSCLC, in the assay with IGROV1 ovarian, in the assay on LOX IMVI melanoma, in the assay with M14 melanoma and with OVCAR-8 ovarian was above 100 µM throughout. Moreover, the TGI with RXF 393 renal and in the assay on SK-MEL-2 melanoma was above 100 µM each time.

On to `CC(C)N(C(=O)c1cccc(C(=O)N(C(C)C)C(C)C)c1)C(C)C`, for which the TGI in the assay on A549 NSCLC, in the assay on HOP-92 NSCLC, in the assay on IGROV1 ovarian, with LOX IMVI melanoma, in the assay with M14 melanoma and in the assay on OVCAR-8 ovarian was above 100 µM throughout. The compound also gave a TGI in the assay with SK-MEL-2 melanoma above 100 µM.

Regarding `COC(=O)CCC(NC(=S)N/N=C(\C)c1ccc[nH]1)C(=O)OC` (configuration not stated), the TGI with A549 NSCLC, with HOP-92 NSCLC, with IGROV1 ovarian, in the assay with LOX IMVI melanoma, in the assay with M14 melanoma and with OVCAR-8 ovarian was above 100 µM throughout. Moreover, the TGI in the assay on RXF 393 renal and in the assay on SK-MEL-2 melanoma was above 100 µM in each case.
